Source: US8895571B2, “Isoindolinone and pyrrolopyridinone derivatives as Akt inhibitors” (Incyte Corporation, priority 2011, dated 2014)

Key:
Full length Akt3 = biological target: T1, Full length Akt3 (Homo sapiens, UniProt Q9Y243); experiment: In vitro Akt kinase enzymatic assay (HTRF), Akt3; type: biochemical; conditions: 0.6 nM Akt3, substrate solution with 5 mM ATP, 25° C. 1 hr
T1 construct: Full length Akt1 (cat #P2999), Akt2 (cat #PV3184), Akt3 (cat #PV3185); purchased PerkinElmer PV3185
Summary of the method: (§1)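 Full-length enzyme (0.4 nM Akt1 or 0.6 nM Akt2/Akt3 in the enzyme solution) was combined with a substrate solution of 0.1 μM ULight-Crosstide plus 5 mM ATP in pH 7.8 HEPES/MgCl2/DTT/Tween20 buffer and reacted 1 hr at 25° C. The EDTA stop contained Eu anti-phospho-Crosstide; IC50 was fitted from 11-point HTRF inhibition curves.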

Full length PKA = biological target: T2, Full length PKA (Homo sapiens, UniProt P17612); experiment: PKA in vitro enzymatic assay (HTRF); type: biochemical; conditions: 0.035 nM enzyme solution, substrate solution with 5 mM ATP, 25° C. 1 hr
T2 construct: Full length PKA (cat #P2912); purchased Invitrogen P2912
Summary of the method: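 IC50 came from curve fitting of percent inhibition across an 11-point, 3-fold compound series, with HTRF read after EDTA quench and Tb-labelled p-S133 antibody detection. Enzyme (0.035 nM solution) and substrate (0.1 μM fluorescein-CREBtide solution containing 5 mM ATP) reacted for 1 h at 25°C. The buffer was HEPES 50 mM pH 7.8 with 10 mM MgCl2, 5 mM DTT and 0.005% Tween20.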

Full length Akt2 = biological target: T3, Full length Akt2 (Homo sapiens, UniProt P31751); experiment: In vitro Akt kinase enzymatic assay (HTRF), Akt2; type: biochemical; conditions: 0.6 nM Akt2, substrate solution with 5 mM ATP, 25° C. 1 hr
T3 construct: Full length Akt1 (cat #P2999), Akt2 (cat #PV3184); purchased PerkinElmer PV3184
Summary of the method: as §1

[1] = tested on: LNCaP cells (human prostate tumor cell line); experiment: Akt LNCaP proliferation assay (MTS); type: cell-based; conditions: 48 hours
Summary of the method: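 Cells plated at 10,000/well in RPMI with 2% FBS overnight at 37° C., 5% CO2, then exposed to compound at 1000 nM to 0.5 nM (3-fold dilutions) for 48 hours. Viable cells measured by MTS colorimetric read-out after 2 hours; IC50 taken as concentration giving 50% inhibition of total proliferation.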

Full length Akt1 = biological target: T4, Full length Akt1 (Homo sapiens, UniProt P31749); experiment: In vitro Akt kinase enzymatic assay (HTRF), Akt1; type: biochemical; conditions: 0.4 nM Akt1, substrate solution with 5 mM ATP, 25° C. 1 hr
T4 construct: Full length Akt1 (cat #P2999); purchased PerkinElmer P2999
Summary of the method: as §1

[2] = 2% fetal bovine serum, class symbols
[3] = given as a bound, final concentrations 1000 nM to 0.5 nM

T4 sequence (P31749 whole entry): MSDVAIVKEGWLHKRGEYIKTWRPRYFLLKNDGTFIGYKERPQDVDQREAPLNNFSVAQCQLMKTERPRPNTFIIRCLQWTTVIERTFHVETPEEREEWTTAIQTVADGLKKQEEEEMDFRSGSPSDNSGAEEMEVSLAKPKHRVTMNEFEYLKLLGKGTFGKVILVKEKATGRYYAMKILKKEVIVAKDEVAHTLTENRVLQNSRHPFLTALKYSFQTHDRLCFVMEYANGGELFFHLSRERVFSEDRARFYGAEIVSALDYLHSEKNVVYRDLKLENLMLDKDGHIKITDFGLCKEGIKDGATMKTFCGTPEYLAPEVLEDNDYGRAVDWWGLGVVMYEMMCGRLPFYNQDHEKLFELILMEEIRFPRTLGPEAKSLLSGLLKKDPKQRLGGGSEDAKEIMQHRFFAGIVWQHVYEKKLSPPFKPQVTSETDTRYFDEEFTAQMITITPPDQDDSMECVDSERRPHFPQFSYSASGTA
T1 sequence (Q9Y243 whole entry): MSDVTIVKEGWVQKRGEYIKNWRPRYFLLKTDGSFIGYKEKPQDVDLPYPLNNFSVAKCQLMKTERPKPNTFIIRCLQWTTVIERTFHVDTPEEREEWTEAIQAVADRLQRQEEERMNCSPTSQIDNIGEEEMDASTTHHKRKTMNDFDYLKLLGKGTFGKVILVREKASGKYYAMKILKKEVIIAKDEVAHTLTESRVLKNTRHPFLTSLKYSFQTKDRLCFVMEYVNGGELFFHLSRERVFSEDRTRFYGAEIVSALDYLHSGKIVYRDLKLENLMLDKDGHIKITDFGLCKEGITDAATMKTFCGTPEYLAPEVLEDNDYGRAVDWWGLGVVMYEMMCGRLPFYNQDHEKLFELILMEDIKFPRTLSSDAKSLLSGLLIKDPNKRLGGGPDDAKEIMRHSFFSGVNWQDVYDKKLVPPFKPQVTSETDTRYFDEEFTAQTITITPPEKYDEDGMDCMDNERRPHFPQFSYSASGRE
T3 sequence (P31751 whole entry): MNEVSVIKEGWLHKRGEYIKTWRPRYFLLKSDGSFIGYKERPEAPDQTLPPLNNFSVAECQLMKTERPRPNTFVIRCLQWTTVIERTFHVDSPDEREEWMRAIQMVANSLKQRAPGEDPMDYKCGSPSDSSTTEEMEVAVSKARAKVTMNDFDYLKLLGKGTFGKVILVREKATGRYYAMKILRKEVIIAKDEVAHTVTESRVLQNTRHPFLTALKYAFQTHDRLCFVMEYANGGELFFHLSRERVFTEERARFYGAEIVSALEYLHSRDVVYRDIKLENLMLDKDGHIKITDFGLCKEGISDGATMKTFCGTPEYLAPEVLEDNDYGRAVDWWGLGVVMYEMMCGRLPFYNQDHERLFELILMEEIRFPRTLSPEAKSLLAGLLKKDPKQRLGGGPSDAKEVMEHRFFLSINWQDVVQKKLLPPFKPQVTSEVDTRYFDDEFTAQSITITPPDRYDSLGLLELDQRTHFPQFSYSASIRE

CC(C)OCc1cnn(C)c1-c1ccc2c(c1)CN([C@H](CN)Cc1ccccc1)C2=O [Example 58, 2-[(1S)-2-amino-1-benzyl-ethyl]-5-[4-(2-propoxymethyl)-1-methyl-1H-pyrazol-5-yl]isoindolin-1-one]
IC50 (Full length Akt3): < 500 nM | IC50 (Full length PKA): > 5000 nM | IC50 (Full length Akt2): < 500 nM | IC50 [1, 2]: < 500 nM | IC50 (Full length Akt1): < 500 nM

Cn1ncc(Cl)c1-c1ccc2c(c1)CN([C@H](CN)Cc1cccc(C#N)c1)C2=O [Example 62, 3-{(2S)-3-amino-2-[5-(4-chloro-1-methyl-1H-pyrazol-5-yl)-1-oxo-1,3-dihydro-2H-isoindol-2-yl]propyl}benzonitrile]
IC50 (Full length Akt3): < 500 nM | IC50 (Full length PKA): > 5000 nM | IC50 (Full length Akt2): < 500 nM | IC50 [1, 2]: < 500 nM | IC50 (Full length Akt1): < 500 nM

Cn1ncc(Cl)c1-c1ccc2c(c1)CN([C@H](CN)Cc1cccnc1)C2=O [Example 65, 2-[(1S)-2-amino-1-(pyridin-3-ylmethyl)ethyl]-5-(4-chloro-1-methyl-1H-pyrazol-5-yl)isoindolin-1-one]
IC50 (Full length Akt3): < 500 nM | IC50 (Full length PKA): > 5000 nM | IC50 (Full length Akt2): < 500 nM | IC50 [1, 2]: < 500 nM | IC50 (Full length Akt1): < 500 nM

Cn1ncc(Cl)c1-c1ccc2c(c1)CN([C@H](CN)Cc1ccccn1)C2=O [Example 66, 2-[(1S)-2-amino-1-(pyridin-2-ylmethyl)ethyl]-5-(4-chloro-1-methyl-1H-pyrazol-5-yl)isoindolin-1-one]
IC50 (Full length Akt3): < 500 nM | IC50 (Full length PKA): 500 to 5000 nM | IC50 (Full length Akt2): < 500 nM | IC50 [1, 2]: < 500 nM | IC50 (Full length Akt1): < 500 nM

Cn1ncc(Cl)c1-c1ccc2c(c1)CN([C@H](CN)Cc1cccs1)C2=O [Example 67, 2-[(1S)-2-amino-1-(2-thienylmethyl)ethyl]-5-(4-chloro-1-methyl-1H-pyrazol-5-yl)isoindolin-1-one]
IC50 (Full length Akt3): < 500 nM | IC50 (Full length PKA): 500 to 5000 nM | IC50 (Full length Akt2): < 500 nM | IC50 [1, 2]: < 500 nM | IC50 (Full length Akt1): < 500 nM

Cn1ncc(Cl)c1-c1ccc2c(c1)CN([C@H](CN)Cc1ccsc1)C2=O [Example 68, 2-[(1S)-2-amino-1-(3-thienylmethyl)ethyl]-5-(4-chloro-1-methyl-1H-pyrazol-5-yl)isoindolin-1-one]
IC50 (Full length Akt3): < 500 nM | IC50 (Full length PKA): 500 to 5000 nM | IC50 (Full length Akt2): < 500 nM | IC50 [1, 2]: < 500 nM | IC50 (Full length Akt1): < 500 nM

Cn1ncc(Cl)c1-c1ccc2c(c1)CN([C@H](CN)Cc1cscn1)C2=O [Example 69, 2-[(1S)-2-amino-1-(1,3-thiazol-4-ylmethyl)ethyl]-5-(4-chloro-1-methyl-1H-pyrazol-5-yl)isoindolin-1-one]
IC50 (Full length Akt3): 500 to 5000 nM | IC50 (Full length PKA): 500 to 5000 nM | IC50 (Full length Akt2): 500 to 5000 nM | IC50 [1, 2]: > 5000 nM | IC50 (Full length Akt1): < 500 nM

Cn1ncc(Cl)c1-c1ccc2c(c1)CN([C@H](CN)Cc1cccc(-c3ccncc3)c1)C2=O [Example 72, 2-[(1S)-2-amino-1-(3-pyridin-4-ylbenzyl)ethyl]-5-(4-chloro-1-methyl-1H-pyrazol-5-yl)isoindolin-1-one]
IC50 (Full length Akt3): > 5000 nM | IC50 (Full length PKA): > 5000 nM | IC50 (Full length Akt2): > 5000 nM | IC50 [1, 3]: > 1000 nM | IC50 (Full length Akt1): > 5000 nM

Cn1ncc(Cl)c1-c1ccc2c(c1)CN([C@H](CN)Cc1cccc(-c3cccnc3)c1)C2=O [Example 73, 2-[(1S)-2-amino-1-(3-pyridin-3-ylbenzyl)ethyl]-5-(4-chloro-1-methyl-1H-pyrazol-5-yl)isoindolin-1-one]
IC50 (Full length Akt3): 500 to 5000 nM | IC50 (Full length PKA): > 5000 nM | IC50 (Full length Akt2): > 5000 nM | IC50 [1, 3]: > 1000 nM | IC50 (Full length Akt1): 500 to 5000 nM

Cn1ncc(Cl)c1-c1ccc2c(c1)CN([C@H](CN)Cc1cccc(-c3cncnc3)c1)C2=O [Example 74, 2-[(1S)-2-amino-1-(3-pyrimidin-5-ylbenzyl)ethyl]-5-(4-chloro-1-methyl-1H-pyrazol-5-yl)isoindolin-1-one]
IC50 (Full length Akt3): > 5000 nM | IC50 (Full length PKA): > 5000 nM | IC50 (Full length Akt2): > 5000 nM | IC50 [1, 3]: > 1000 nM | IC50 (Full length Akt1): 500 to 5000 nM
